Reference: US20120220562A1, “Anti-Viral Compounds” (ABBOTT LABAORATORIES, priority 2011, published 2012)

What follows are compounds tested on HCV 1b-Con1 replicon (assay: HCV 1b-Con1 replicon assay in the presence of 5% FBS). Conditions: Hepatitis C virus.
Type: cell-based
In the case of `COC(=O)N[C@H](C(=O)N1CCCC1c1nc2cc([C@H]3CC[C@H](c4ccc5[nH]c([C@@H]6CCCN6)nc5c4)N3c3ccc(C(C)(C)C)cc3)ccc2[nH]1)C(C)C` (stereo partly drawn) [Example 4.20, methyl [(2S)-1-(2-{5-[(2R,5R)-1-(4-tert-butylphenyl)-5-{2-[(2S)-pyrrolidin-2-yl]-1H-benzimidazol-5-yl}pyrrolidin-2-yl]-1H-benzimidazol-2-yl}pyrrolidin-1-yl)-3-methyl-1-oxobutan-2-yl]carbamate], the EC50 is reported as < 100 pM. With `COC(=O)N[C@H](C(=O)N1CCC[C@H]1c1nc2cc([C@H]3CC[C@H](c4ccc5[nH]c([C@@H]6CCCN6C(=O)[C@@H](NC(=O)OC)C(C)C)nc5c4)N3c3cc(F)c(N4CC5CCC4CC5)c(F)c3)ccc2[nH]1)C(C)C` [Example 4.21, methyl {(2S)-1-[(2S)-2-{5-[(2R,5R)-1-[4-(2-azabicyclo[2.2.2]oct-2-yl)-3,5-difluorophenyl]-5-{2-[(2S)-1-{(2S)-2-[(methoxycarbonyl)amino]-3-methylbutanoyl}pyrrolidin-2-yl]-1H-benzimidazol-5-yl}pyrrolidin-2-yl]-1H-benzimidazol-2-yl}pyrrolidin-1-yl]-3-methyl-1-oxobutan-2-yl}carbamate] the EC50 was < 100 pM. In the case of `COC(=O)N[C@H](C(=O)N1CCC[C@H]1c1nc2cc([C@H]3CC[C@H](c4ccc5[nH]c([C@@H]6CCCN6C(=O)[C@@H](NC(=O)OC)C(C)C)nc5c4)N3c3cc(F)c(N4CCC(C(C)C)CC4)c(F)c3)ccc2[nH]1)C(C)C` [Example 4.22, methyl {(2S)-1-[(2S)-2-{5-[(2R,5R)-1-{3,5-difluoro-4-[4-(propan-2-yl)piperidin-1-yl]phenyl}-5-{2-[(2S)-1-{(2S)-2-[(methoxycarbonyl)amino]-3-methylbutanoyl}pyrrolidin-2-yl]-1H-benzimidazol-5-yl}pyrrolidin-2-yl]-1H-benzimidazol-2-yl}pyrrolidin-1-yl]-3-methyl-1-oxobutan-2-yl}carbamate], the EC50 is reported as < 100 pM. For `COC(=O)N[C@H](C(=O)N1CCC[C@H]1c1nc2cc([C@H]3CC[C@H](c4ccc5[nH]c([C@@H]6CCCN6C(=O)[C@@H](NC(=O)OC)C6CCOCC6)nc5c4)N3c3cc(F)c(N4CCC(C)(C)CC4)c(F)c3)ccc2[nH]1)C1CCOCC1` [Example 4.23, dimethyl ({(2R,5R)-1-[4-(4,4-dimethylpiperidin-1-yl)-3,5-difluorophenyl]pyrrolidine-2,5-diyl}bis{1H-benzimidazole-5,2-diyl(2S)pyrrolidine-2,1-diyl[(1S)-2-oxo-1-(tetrahydro-2H-pyran-4-yl)ethane-2,1-diyl]})biscarbamate], the EC50 was < 100 pM. In the case of `COC(=O)N[C@H](C(=O)N1CCC[C@H]1c1nc2cc([C@H]3CC[C@H](c4ccc5[nH]c([C@@H]6CCCN6C(=O)[C@@H](NC(=O)OC)C(C)C)nc5c4)N3c3cc(F)c(N4CC(C)(C)C4)c(F)c3)ccc2[nH]1)C(C)C` [Example 4.24, methyl {(2S)-1-[(2S)-2-{5-[(R2R,5R)-1-[4-(3,3-dimethylazetidin-1-yl)-3,5-difluorophenyl]-5-{2-[(2S)-1-{(2S)-2-[(methoxycarbonyl)amino]-3-methylbutanoyl}pyrrolidin-2-yl]-1H-benzimidazol-5-yl}pyrrolidin-2-yl]-1H-benzimidazol-2-yl}pyrrolidin-1-yl]-3-methyl-1-oxobutan-2-yl}carbamate], the EC50 is reported as < 100 pM. `COC(=O)N[C@H](C(=O)N1CCC[C@H]1c1nc2cc([C@H]3CC[C@H](c4ccc5[nH]c([C@@H]6CCCN6C(=O)[C@@H](NC(=O)OC)C(C)C)nc5c4)N3c3ccc(N4CCC(c5ccccc5)CC4)cc3)ccc2[nH]1)C(C)C` [Example 4.25, methyl {(2S)-1-[(2S)-2-(5-{(2R,5R)-5-{2-[(2S)-1-{(2S)-2-[(methoxycarbonyl)amino]-3-methylbutanoyl}pyrrolidin-2-yl]-1H-benzimidazol-5-yl}-1-[4-(4-phenylpiperidin-1-yl)phenyl]pyrrolidin-2-yl}-1H-benzimidazol-2-yl)pyrrolidin-1-yl]-3-methyl-1-oxobutan-2-yl}carbamate] showed an EC50 of 100 to 1000 pM. For `COC(=O)N[C@H](C(=O)N1CCC[C@H]1c1nc2cc([C@H]3CC[C@H](c4cc5nc([C@@H]6CCCN6C(=O)[C@@H](NC(=O)OC)C(C)C)[nH]c5cc4F)N3c3cc(F)c(N4CCC(CCCc5ccccc5)CC4)c(F)c3)c(F)cc2[nH]1)C(C)C` [Example 4.26, methyl {(2S)-1-[(2S)-2-{5-[(2R,5R)-1-{3,5-difluoro-4-[4-(3-phenylpropyl)piperidin-1-yl]phenyl}-5-{6-fluoro-2-[(2S)-1-{(2S)-2-[(methoxycarbonyl)amino]-3-methylbutanoyl}pyrrolidin-2-yl]-1H-benzimidazol-5-yl}pyrrolidin-2-yl]-6-fluoro-1H-benzimidazol-2-yl}pyrrolidin-1-yl]-3-methyl-1-oxobutan-2-yl}carbamate], the EC50 was < 100 pM. For `COC(=O)N[C@H](C(=O)N1CCC[C@H]1c1nc2cc([C@H]3CC[C@H](c4cc5nc([C@@H]6CCCN6C(=O)[C@@H](NC(=O)OC)C(C)C)[nH]c5cc4F)N3c3cc(F)c(N4CCC(C(C)(C)C)CC4)c(F)c3)c(F)cc2[nH]1)C(C)C` [Example 4.27, methyl {(2S)-1-[(2S)-2-{5-[(2R,5R)-1-[4-(4-tert-butylpiperidin-1-yl)-3,5-difluorophenyl]-5-{6-fluoro-2-[(2S)-1-{(2S)-2-[(methoxycarbonyl)amino]-3-methylbutanoyl}pyrrolidin-2-yl]-1H-benzimidazol-5-yl}pyrrolidin-2-yl]-6-fluoro-1H-benzimidazol-2-yl}pyrrolidin-1-yl]-3-methyl-1-oxobutan-2-yl}carbamate], the EC50 was < 100 pM. In the case of `COC(=O)N[C@H](C(=O)N1CCC[C@H]1c1nc2cc([C@H]3CC[C@H](c4cc5nc([C@@H]6CCCN6C(=O)[C@@H](NC(=O)OC)C6CCCC6)[nH]c5cc4F)N3c3cc(F)c(N4CCC(C(C)(C)C)CC4)c(F)c3)c(F)cc2[nH]1)C1CCCC1` [Example 4.28, dimethyl ({(2R,5R)-1-[4-(4-tert-butylpiperidin-1-yl)-3,5-difluorophenyl]pyrrolidine-2,5-diyl}bis{(6-fluoro-1H-benzimidazole-5,2-diyl)(2S)pyrrolidine-2,1-diyl[(1S)-1-cyclopentyl-2-oxoethane-2,1-diyl]})biscarbamate], the EC50 is reported as < 100 pM. For `COC(=O)N[C@H](C(=O)N1CCC[C@H]1c1nc2cc([C@H]3CC[C@H](c4cc5nc([C@@H]6CCCN6C(=O)[C@@H](NC(=O)OC)[C@@H](C)OC(C)(C)C)[nH]c5cc4F)N3c3cc(F)c(N4CCC(C(C)(C)C)CC4)c(F)c3)c(F)cc2[nH]1)[C@@H](C)OC(C)(C)C` [Example 4.29, methyl {(2S,3R)-3-tert-butoxy-1-[(2S)-2-(5-{(2R,5R)-5-{2-[(2S)-1-{(2S,3R)-3-tert-butoxy-2-[(methoxycarbonyl)amino]butanoyl}pyrrolidin-2-yl]-6-fluoro-1H-benzimidazol-5-yl}-1-[4-(4-tert-butylpiperidin-1-yl)-3,5-difluorophenyl]pyrrolidin-2-yl}-6-fluoro-1H-benzimidazol-2-yl)pyrrolidin-1-yl]-1-oxobutan-2-yl}carbamate], the EC50 was < 100 pM. For `COC(=O)N[C@H](C(=O)N1CCC[C@H]1c1nc2cc([C@H]3CC[C@H](c4cc5nc([C@@H]6CCCN6C(=O)[C@@H](NC(=O)OC)C(C)C)[nH]c5cc4F)N3c3cc(F)c(N4CCC(c5ccc6ccccc6c5)CC4)c(F)c3)c(F)cc2[nH]1)C(C)C` [Example 4.30, methyl {(2S)-1-[(2S)-2-{5-[(2R,5R)-1-{3,5-difluoro-4-[4-(2-naphthyl)piperidin-1-yl]phenyl}-5-{6-fluoro-2-[(2S)-1-{(2S)-2-[(methoxycarbonyl)amino]-3-methylbutanoyl}pyrrolidin-2-yl]-1H-benzimidazol-5-yl}pyrrolidin-2-yl]-6-fluoro-1H-benzimidazol-2-yl}pyrrolidin-1-yl]-3-methyl-1-oxobutan-2-yl}carbamate], the EC50 was < 100 pM. For `COC(=O)N[C@H](C(=O)N1CCC[C@H]1c1nc2cc([C@H]3CC[C@H](c4cc5nc([C@@H]6CCCN6C(=O)[C@@H](NC(=O)OC)C(C)C)[nH]c5cc4F)N3c3cc(F)c(N4CCC5(CCc6ccccc65)CC4)c(F)c3)c(F)cc2[nH]1)C(C)C` [Example 4.31, methyl {(2S)-1-[(2S)-2-{5-[(2R,5R)-1-[4-(2,3-dihydro-1′H-spiro[indene-1,4′-piperidin]-1′-yl)-3,5-difluorophenyl]-5-{6-fluoro-2-[(2S)-1-{(2S)-2-[(methoxycarbonyl)amino]-3-methylbutanoyl}pyrrolidin-2-yl]-1H-benzimidazol-5-yl}pyrrolidin-2-yl]-6-fluoro-1H-benzimidazol-2-yl}pyrrolidin-1-yl]-3-methyl-1-oxobutan-2-yl}carbamate], the EC50 was < 100 pM. In the case of `COC(=O)N[C@H](C(=O)N1CCC[C@H]1c1nc2cc([C@H]3CC[C@H](c4ccc5nc([C@@H]6CCCN6C(=O)[C@@H](NC(=O)OC)C(C)C)[nH]c5c4)N3c3cc(F)c(N4CCCC(c5ccccc5)C4)c(F)c3)ccc2[nH]1)C(C)C` (stereo partly drawn) [Example 4.32, methyl {(2S)-1-[(2S)-2-{5-[(2R,5R)-1-[3,5-difluoro-4-(3-phenylpiperidin-1-yl)phenyl]-5-{2-[(2S)-1-{(2S)-2-[(methoxycarbonyl)amino]-3-methylbutanoyl}pyrrolidin-2-yl]-1H-benzimidazol-6-yl}pyrrolidin-2-yl]-1H-benzimidazol-2-yl}pyrrolidin-1-yl]-3-methyl-1-oxobutan-2-yl}carbamate], the EC50 is reported as < 100 pM. `COC(=O)N[C@H](C(=O)N1CCC[C@H]1c1nc2cc([C@H]3CC[C@H](c4ccc5nc([C@@H]6CCCN6C(=O)[C@@H](NC(=O)OC)C(C)C)[nH]c5c4)N3c3cc(F)c(N4CCC(c5ccccc5)C4)c(F)c3)ccc2[nH]1)C(C)C` (stereo partly drawn) [Example 4.33, methyl {(2S)-1-[(2S)-2-{5-[(2R,5R)-1-[3,5-difluoro-4-(3-phenylpyrrolidin-1-yl)phenyl]-5-{2-[(2S)-1-{(2S)-2-[(methoxycarbonyl)amino]-3-methylbutanoyl}pyrrolidin-2-yl]-1H-benzimidazol-6-yl}pyrrolidin-2-yl]-1H-benzimidazol-2-yl}pyrrolidin-1-yl]-3-methyl-1-oxobutan-2-yl}carbamate] was tested, and the EC50 was < 100 pM.
